The values below come from PubChem BioAssay (NCI).

Among the test systems are CAKI-1 renal; HCT-116 colon; NCI-H460 lung; DU-145 prostate; BT-549 breast; LOX IMVI melanoma; UACC-62 melanoma; SNB-75 CNS; HOP-62 NSCLC; OVCAR-4 ovarian.
Holding throughout (test): NCI-60 cell line screen, 48 h

SMILES strings stand for the structures. Values joined by “and” are separate entries in the source; they are usually repeats but may differ in a detail not shown here. Equal entries are not always repeated.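 Interpolation was linear, between the two tested concentrations surrounding the appropriate level; five concentrations were tested over 48 hours in 96-well plates. GI50: concentration for 50% inhibition of growth. TGI: total growth inhibition.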

With `C=C(C)[C@@H]1CC=C(CO)CC1`, the TGI in the experiment on CAKI-1 renal was above 10 µM; with HCT-116 colon it was > 10 µM and 627 µM; in the experiment on NCI-H460 lung, > 10 µM and 1260 µM; in the experiment on DU-145 prostate, above 10 µM; in the experiment with BT-549 breast, above 10 µM; with LOX IMVI melanoma, > 10 µM and 923 µM. Further, the TGI is > 10 µM and 964 µM in the experiment with UACC-62 melanoma; > 10 µM and 374 µM with SNB-75 CNS; > 10 µM and 961 µM with HOP-62 NSCLC; > 10 µM and 1130 µM in the experiment on OVCAR-4 ovarian. The GI50 in the experiment with HCT-116 colon, with NCI-H460 lung, in the experiment on LOX IMVI melanoma, with UACC-62 melanoma, in the experiment with SNB-75 CNS and in the experiment with HOP-62 NSCLC was above 10 µM each time. For the same compound, the GI50 in the experiment on OVCAR-4 ovarian was above 10 µM.
With `N#Cc1ncc(/N=C/c2ccc(N(CCCl)CCCl)cc2)s1`, the GI50 with CAKI-1 renal was 2.22 µM; in the experiment on HCT-116 colon it was 30.2 µM; in the experiment with NCI-H460 lung, 3.31 µM; with DU-145 prostate it was 5.62 µM; with BT-549 breast, 29.6 µM; with LOX IMVI melanoma, 6.89 µM. For the same compound, the GI50 with UACC-62 melanoma was 3.09 µM; with SNB-75 CNS it was 17.6 µM; in the experiment on HOP-62 NSCLC it was 17.9 µM; in the experiment with OVCAR-4 ovarian it was 41.8 µM. Also, the TGI with CAKI-1 renal is 8.18 µM; with HCT-116 colon it was above 100 µM; in the experiment on NCI-H460 lung, 66.8 µM; in the experiment with DU-145 prostate it was 57.1 µM; with BT-549 breast it was above 100 µM; in the experiment with LOX IMVI melanoma, above 100 µM. For the same compound, the TGI with UACC-62 melanoma is 28.7 µM; with SNB-75 CNS, above 100 µM; with HOP-62 NSCLC it was above 100 µM; with OVCAR-4 ovarian it was above 100 µM.
